Target: STING (Homo sapiens, UniProt Q86WV6, G230A/H232R/R293Q/R71H)
Assay: STING reporter assay: THP1-Dual KO-IFNAR2 cells stimulated with 2′3′cGAMP, luciferase reporter activity
Format: cell-based
Settings: 15 μM 2′3′cGAMP, 24h
Procedure: STING pathway activation by the compounds described herein were measured using THP1-Dual™ cells (KO-IFNAR2).
THP1-Dual™ KO-IFNAR2 Cells (obtained from invivogen) were maintained in RPMI, 10% FCS, 5 ml P/S, 2 mM L-glut, 10 mM Hepes, and 1 mM sodium pyruvate. Compounds were spotted in empty 384 well tissue culture plates (Greiner 781182) by Echo for a final concentration of 0.0017-100 μM. Cells were plated into the TC plates at 40 μL per well, 2×10E6 cells/mL. For activation with STING ligand, 2′3′cGAMP (MW 718.38, obtained from Invivogen), was prepared in Optimem media.
The following solutions were prepared for each 1×384 plate: • Solution A: 2 mL Optimem with one of the following stimuli: • 60 uL of 10 mM 2′3′cGAMP ->150 μM stock • Solution B: 2 mL Optimem with 60 μL Lipofectamine 2000->Incubate 5 min at RT
2 mL of solution A and 2 ml Solution B was mixed and incubated for 20 min at room temperature (RT). 20 uL of transfection solution (A+B) was added on top of the plated cells, with a final 2′3′cGAMP concentration of 15 μM. The plates were then centrifuged immediately at 340 g for 1 minute, after which they were incubated at 37° C., 5% CO2, >98% humidity for 24h. Luciferase reporter activity was then measured. EC50 values were calculated by using standard methods known in the art.
Luciferase reporter assay: 10 μL of supernatant from the assay was transferred to white 384-plate with flat bottom and squared wells. One pouch of QUANTI-Luc™ Plus was dissolved in 25 mL of water. 100 μL of QLC Stabilizer per 25 mL of QUANTI-Luc™ Plus solution was added. 50 μL of QUANTI-Luc™ Plus/QLC solution per well is then added. Luminescence is measured on a Platereader (e.g., Spectramax I3X (Molecular Devices GF3637001)).
Luciferase reporter activity was then measured. EC50 values were calculated by using standard methods known in the art.

Sequence of STING (Q86WV6 whole entry R71H/G230A/H232R/R293Q): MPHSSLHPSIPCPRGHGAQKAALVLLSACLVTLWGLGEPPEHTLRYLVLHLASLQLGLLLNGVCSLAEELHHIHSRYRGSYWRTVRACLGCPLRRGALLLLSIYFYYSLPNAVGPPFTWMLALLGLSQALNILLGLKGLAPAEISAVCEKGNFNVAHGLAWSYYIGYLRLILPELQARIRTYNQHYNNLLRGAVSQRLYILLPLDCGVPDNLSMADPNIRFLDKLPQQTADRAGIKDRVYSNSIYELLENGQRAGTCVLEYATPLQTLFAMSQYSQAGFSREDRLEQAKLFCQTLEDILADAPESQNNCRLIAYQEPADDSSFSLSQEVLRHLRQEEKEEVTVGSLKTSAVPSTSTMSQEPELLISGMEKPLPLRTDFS

EC50 (class symbols)	EC50 (numeric bounds)	SMILES
	> 30 µM	CNC(=O)c1c[nH]c2cc(NC(=O)Nc3ccc(C(F)(F)F)cc3)ccc12 [Compound 541]
0.2 to 1 µM		O=C(Nc1cc(Cl)c2cc[nH]c2c1)NC1CCC2(CCCCC2)CC1 [Compound 542]
	> 30 µM	CC1(C)Oc2ccc(Nc3ccc4cc[nH]c4c3)nc2NC1=O [Compound 585, 6-[(1H-indol-6-yl)amino]-2,2-dimethyl-2H,3H,4H-pyrido[3,2-b][1,4]oxazin-3-one]
5 to 100 µM		CNS(=O)(=O)c1c[nH]c2cc(NC(=O)Nc3ccc(C(F)(F)F)cc3)ccc12 [Compound 508]
5 to 100 µM		Cc1nc(Nc2ccc3cc[nH]c3c2)ccc1Nc1ccc2cc[nH]c2c1 [Compound 583, N2,N5-bis(1H-indol-6-yl)-6-methylpyridine-2,5-diamine]
5 to 100 µM		O=C(NCc1cc(Cl)cc(C(F)(F)F)c1)Nc1ccc2c(F)c[nH]c2c1 [Compound 538]
1 to 5 µM		CCCCc1ccc(Nc2c(Nc3ccc4c(c3)CC=N4)c(=O)c2=O)cc1 [Compound 618]
5 to 100 µM		O=C(NCCOc1cccnc1)Nc1ccc2cc[nH]c2c1 [Compound 519]
1 to 5 µM		FC(F)(F)c1ccc(Nc2ccc3cc[nH]c3c2)nc1Cl [Compound 591]
0.2 to 1 µM		Brc1ccc2ccc(Nc3ccc4cc[nH]c4c3)nc2c1 [Compound 607]
5 to 100 µM		c1cnc2nc(Nc3ccc4cc[nH]c4c3)ccc2c1 [Compound 573, N-(1H-indol-6-yl)-1,8-naphthyridin-2-amine]
	> 30 µM	Cn1cc(-n2cc(C#N)c3ccc(NC(=O)Nc4ccc(C(F)(F)F)cc4)cc32)cn1 [Compound 544]
1 to 5 µM		N#Cc1c[nH]c2cc(NC(=O)Nc3ccc(C(F)(F)F)cc3)cc(F)c12 [Compound 528]
5 to 100 µM		CC(NC(=O)Nc1cnc2cc[nH]c2c1)c1cc(Cl)cc(C(F)(F)F)c1 (stereo not drawn) [Compound 506]
1 to 5 µM		Cc1ccc2ccc(Nc3ccc4cc[nH]c4c3)nc2c1 [Compound 592]
0.2 to 1 µM		FC(F)(F)c1nc(Nc2cc(Cl)c3cc[nH]c3c2)ccc1Cl [Compound 568]
1 to 5 µM		O=C(NCc1cc(Cl)cc(C(F)(F)F)c1)Nc1cnc2cc[nH]c2c1 [Compound 507]
5 to 100 µM		CNC(=O)c1cc(NC(=O)Nc2ccc(C(F)(F)F)cc2)cc2[nH]ccc12 [Compound 543]
5 to 100 µM		CC(C)(C)OC(=O)N1CCc2cnc(Nc3ccc4cc[nH]c4c3)nc2C1 [Compound 428, tert-butyl 2-((1H-indol-6-yl)amino)-5,6-dihydropyrido[3,4-d]pyrimidine-7(8H)-carboxylate]
	> 30 µM	c1cnc2ccnc(Nc3ccc4cc[nH]c4c3)c2c1 [Compound 478, N-(1H-indol-6-yl)-1,6-naphthyridin-5-amine]
	> 30 µM	CC(N)c1ccnc(Nc2ccc3cc[nH]c3c2)c1 (stereo not drawn) [Compound 430, N-(4-(1-aminoethyl)pyridin-2-yl)-1H-indol-6-amine]
	> 30 µM	FC(F)(F)c1ccc2cnc(Nc3ccc4cc[nH]c4c3)nc2c1 [Compound 432, N-(1H-indol-6-yl)-7-(trifluoromethyl)quinazol in-2-amine]
	> 20.4 µM	c1ccc(-c2cccc(Nc3ccc4cc[nH]c4c3)n2)cc1 [Compound 427, N-(6-phenylpyridin-2-yl)-1H-indol-6-amine]
1 to 5 µM		O=C(Nc1ccc(C(F)(F)F)cc1)Nc1cc(C(=O)OC2CCCC2)c2cc[nH]c2c1 [Compound 602, cyclopentyl 6-(3-(4-(trifluoromethyl)phenyl)ureido)-1H-indole-4-carboxylate]
5 to 100 µM		CNC(=O)Cc1c[nH]c2cc(NC(=O)Nc3ccc(C(F)(F)F)cc3)ccc12 [Compound 540]
	> 30 µM	O=C1CCc2nc(Nc3ccc4cc[nH]c4c3)ccc21 [Compound 596, 2-[(1H-indol-6-yl)amino]-5H,6H,7H-cyclopenta[b]pyridin-5-one]

Second part, the compound before the results:

SMILES	EC50 (class symbols)	EC50 (numeric bounds)
O=C(Nc1ccc(C(F)(F)F)cc1)Nc1cc(F)c2cc[nH]c2c1 [Compound 246]	0.2 to 1 µM	
CCCCC1CCC(NC(=O)Nc2ccc3cc[nH]c3c2)CC1 (stereo not drawn) [Compound 271]	0.2 to 1 µM	
Cc1cccc(CNC(=O)Nc2ccc3cc[nH]c3c2)c1 [Compound 225]	5 to 100 µM	
O=C(NCCC1CC1)Nc1ccc2cc[nH]c2c1 [Compound 162]	5 to 100 µM	
O=C(NCc1ccc(OCC(F)(F)F)nc1)Nc1ccc2cc[nH]c2c1 [Compound 176]	1 to 5 µM	
O=C(Nc1ccc(C2CC(F)(F)C2)c(F)c1)Nc1ccc2cc[nH]c2c1 [Compound 240]	0.2 to 1 µM	
CC(C)CCNC(=O)Nc1ccc2[nH]ccc2c1 [Compound 329]		> 30 µM
O=C(NCc1ccc(F)c(F)c1)Nc1ccc2[nH]ccc2c1 [Compound 336]		> 30 µM
Cc1ccccc1NC(=O)Nc1ccc2cc[nH]c2c1 [Compound 231]		> 30 µM
O=C(Nc1ccc2[nH]ccc2c1)Nc1ccc2[nH]ccc2c1 [Compound 283]		> 30 µM
O=C(NCCc1ccccc1)Nc1ccc2cc[nH]c2c1 [Compound 187]		> 30 µM
Cn1cc(NC(=O)Nc2ccc3cc[nH]c3c2)cn1 [Compound 189]		> 30 µM
Cc1cc(CNC(=O)Nc2ccc3cc[nH]c3c2)nn1C [Compound 185]		> 30 µM
CC(Cc1cccc(C(F)(F)F)c1)NC(=O)Nc1ccc2cc[nH]c2c1 (stereo not drawn) [Compound 172]	1 to 5 µM	
O=C(NCCSCc1c(Cl)cccc1Cl)Nc1ccc2[nH]ccc2c1 [Compound 349]		> 30 µM
O=C(Nc1ccc(F)c(F)c1)Nc1ccc2cc[nH]c2c1 [Compound 164]	0.2 to 1 µM	
CCn1cc(CNC(=O)Nc2ccc3[nH]ccc3c2)cn1 [Compound 301]		> 30 µM
O=C(Nc1ccc(C(F)(F)F)cc1)Nc1ccc2cc(-c3ccccc3)[nH]c2c1 [Compound 256]		> 100 µM
c1cc(Nc2ccc3cc[nH]c3c2)nc(N2CCCC2)c1 [Compound 397, N-(6-(pyrrolidin-1-yl)pyridin-2-yl)-1H-indol-6-amine]		> 30 µM
O=C(Nc1cccc(S(=O)(=O)N2CCCC2)c1)Nc1ccc2cc[nH]c2c1 [Compound 168]	5 to 100 µM	
CC(C)c1ccc(-c2nnc(NC(=O)Nc3ccc4cc[nH]c4c3)s2)cc1 [Compound 182]	0.2 to 1 µM	
CC(C)(C)n1cc(NC(=O)Nc2ccc3[nH]ccc3c2)cn1 [Compound 332]		> 30 µM

SMILES	EC50 (class symbols)	EC50 (numeric bounds)
O=C(NCc1ccc(OCC(F)(F)F)nc1)Nc1ccc2[nH]ccc2c1 [Compound 296]		> 30 µM
CCCCC1CCC(NC(=O)Nc2ccc3[nH]ccc3c2)CC1 (stereo not drawn) [Compound 379]		> 5 µM
CCOCc1ccc(Nc2ccc3cc[nH]c3c2)nc1 [Compound 412, N-(5-(ethoxymethyl)pyridin-2-yl)-1H-indol-6-amine]	5 to 100 µM	
O=C(Nc1cc(Cl)cc(C(F)(F)F)c1)Nc1ccc2cc[nH]c2c1 [Compound 254]	0.2 to 1 µM	
O=C(Nc1ccc2[nH]ccc2c1)NC1Cc2ccccc2C1 [Compound 357]		> 30 µM
O=C(Nc1ccc(C(F)(F)F)cc1)Nc1ccc2cc[nH]c2c1 [Compound 101]	0.04 to 0.2 µM	
O=C(NCCc1c(F)cccc1Cl)Nc1ccc2[nH]ccc2c1 [Compound 323]		> 30 µM
CC[C@H](NC(=O)Nc1ccc2[nH]ccc2c1)c1ccccc1 [Compound 358]		> 30 µM
O=C(NCc1ccc(F)c(F)c1)Nc1ccc2cc[nH]c2c1 [Compound 221]		> 30 µM
O=C(Nc1ccc2cc[nH]c2c1)NC1Cc2ccccc2C1 [Compound 161]		> 30 µM
O=C(Nc1ccc2cc[nH]c2c1)Nc1ccccc1Cl [Compound 194]		> 30 µM
N#Cc1cc(F)cc(NC(=O)Nc2ccc3[nH]ccc3c2)c1 [Compound 307]		> 30 µM
O=C(Nc1ccc(C(F)(F)F)cc1)Nc1cc2[nH]ccc2cc1F [Compound 262]	5 to 100 µM	
OCc1cccnc1Nc1ccc2cc[nH]c2c1 [Compound 400, (2-((1H-indol-6-yl)amino)pyridin-3-yl)methanol]		> 30 µM
O=C(Nc1cccc(C(F)(F)F)c1)Nc1ccc2cc[nH]c2c1 [Compound 272]	0.2 to 1 µM	
CC(C)(C)c1cc(NC(=O)Nc2ccc3[nH]ccc3c2)on1 [Compound 305]		> 30 µM
c1cc2ccc(Nc3ccc4ccc(C5CCCCC5)cc4n3)cc2[nH]1 [Compound 389, 7-cyclohexyl-N-(1H-indol-6-yl)quinolin-2-amine]	1 to 5 µM	
Cn1ccc2cc(NC(=O)Nc3ccc(C(F)(F)F)cc3)ccc21 [Compound 377]		> 100 µM
O=C(Nc1ccc(S(=O)(=O)N2CCCC2)cc1)Nc1ccc2[nH]ccc2c1 [Compound 284]		> 30 µM
Cc1ccc(CNC(=O)Nc2ccc3cc[nH]c3c2)cc1C [Compound 223]		> 30 µM
O=C(NCCCc1cncc(C(F)(F)F)c1)Nc1ccc2cc[nH]c2c1 [Compound 177]	1 to 5 µM	

Reference: patent publication US20230092163A1, “COMPOUNDS AND COMPOSITIONS FOR TREATING CONDITIONS ASSOCIATED WITH STING ACTIVITY” (IFM Due, Inc., priority 2019, published 2023)
